Measured values taken from PMC10079702, “Study of the inhibition effects on glutathione peroxidase immobilized on MNPs using a stopped-flow microfluidic system” (Analytical and Bioanalytical Chemistry, 2023).

Biological target: T1, glutathione peroxidase (GPx) (Bos taurus, UniProt P00435)
T1 construct: gene GPX1; selenoprotein; EDC-coupled to magnetic nanoparticles for the assay
T1 sequence (P00435 1-205): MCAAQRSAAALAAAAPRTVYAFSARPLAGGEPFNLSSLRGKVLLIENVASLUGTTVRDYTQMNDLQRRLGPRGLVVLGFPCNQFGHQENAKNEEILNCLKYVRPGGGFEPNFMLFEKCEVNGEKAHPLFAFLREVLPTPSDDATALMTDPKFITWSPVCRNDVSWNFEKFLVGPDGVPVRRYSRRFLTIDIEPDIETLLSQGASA
Assay: stopped-flow microfluidic fluorimetry of competing homovanillic acid dimerization, Lineweaver-Burk
Format: biochemical
Conditions: GPx immobilized on magnetic nanoparticles; GSH, H2O2, HVA; Tris-HCl 50 mmol/L pH 9, 30 °C; stated non-competitive; listed as at 1 µmol/L inhibitor; printed unit is not a concentration
Source text: stopped-flow microfluidic fluorimetry of competing homovanillic acid dimerization, Lineweaver-Burk on glutathione peroxidase (GPx)

CC(C)(C)OO [t-butyl hydroperoxide]
KI: 117.09 µmol/L/s
